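Dose response: 5 concentrations. Exposure: 48 h. Format: 96-well plates. Endpoint: linear interpolation; highest concentration if not reached. GI50 = concentration required for 50% inhibition of growth.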 Active and inactive are the calls of the source. Rule as the data show it: active = GI50 up to about 1.1 µM and inactive = higher.
How the values were obtained:
Experiment in all cases: inhibition of tumour cell growth, NCI panel, 48 h
DU-145 = tested on: DU-145
SW-620 = tested on: SW-620
SK-MEL-5 = tested on: SK-MEL-5
CCRF-CEM = tested on: CCRF-CEM
SK-OV-3 = tested on: SK-OV-3
NCI/ADR-RES = tested on: NCI/ADR-RES
MOLT-4 = tested on: MOLT-4
SR = tested on: SR
HL-60 = tested on: HL-60
M19-MEL = tested on: M19-MEL
A549 = tested on: A549
UO-31 = tested on: UO-31
K562 = tested on: K562
EKVX = tested on: EKVX
SK-MEL-2 = tested on: SK-MEL-2
COLO 205 = tested on: COLO 205
KM12 = tested on: KM12
Malme-3M = tested on: Malme-3M
MDA-N = tested on: MDA-N
OVCAR-5 = tested on: OVCAR-5

Compound	GI50 (DU-145)	GI50 (SW-620)	GI50 (SK-MEL-5)	GI50 (CCRF-CEM)	GI50 (SK-OV-3)	GI50 (NCI/ADR-RES)	GI50 (MOLT-4)	GI50 (SR)	GI50 (HL-60)	GI50 (M19-MEL)	GI50 (A549)	GI50 (UO-31)	GI50 (K562)	GI50 (EKVX)	GI50 (SK-MEL-2)	GI50 (COLO 205)	GI50 (KM12)	GI50 (Malme-3M)	GI50 (MDA-N)	GI50 (OVCAR-5)
COc1cc(C(=O)NC2CCc3cc(OC)c(OC)c(OC)c3-c3ccc(OC)c(=O)cc32)cc(OC)c1OC (stereo not given)	0.24 µM (active)	0.0521 µM (active)	0.0553 µM (active)	0.0339 µM (active)	0.231 µM (active)	18.2 µM (inactive)	0.0451 µM (active)	0.0249 µM (active)	0.0259 µM (active)	0.0577 µM (active)	0.431 µM (active)	10.9 µM (inactive)	0.0403 µM (active)	12 µM (inactive)	0.0935 µM (active)	0.0585 µM (active)	0.036 µM (active)	0.141 µM (active)	0.0202 µM (active)	2.75 µM (inactive)
CC(=O)OC1=CC(n2cc(F)c(=O)[nH]c2=O)OC(C)C1=O (stereo not given)	21.6 µM (inactive)	59 µM (inactive)	13.2 µM (inactive)	75 µM (inactive)	99.1 µM (inactive)	40.2 µM (inactive)	39.8 µM (inactive)	26.1 µM (inactive)	21.4 µM (inactive)	90.8 µM (inactive)	7.29 µM (inactive)	13.5 µM (inactive)	57 µM (inactive)	> 88.5 µM (inactive)	> 100 µM (inactive)	15.3 µM (inactive)	22.8 µM (inactive)	19.6 µM (inactive)	15.2 µM (inactive)	49.8 µM (inactive)
COc1cc2[nH]c3c(c2cc1OC)CCN[C@@]31CC[C@@]2(CC3c4c(cc(OC)c(O)c42)CCN3C)C[C@@H]1OC (stereo not given in full)	> 81.3 µM (inactive)	32.8 µM (inactive)	16.5 µM (inactive)	27.2 µM (inactive)	73.6 µM (inactive)	48.8 µM (inactive)	23.4 µM (inactive)	12.5 µM (inactive)	16.3 µM (inactive)	19.4 µM (inactive)	63 µM (inactive)	20.6 µM (inactive)	20.7 µM (inactive)	36.4 µM (inactive)	17.8 µM (inactive)	16.6 µM (inactive)	42.6 µM (inactive)	18.5 µM (inactive)	18.7 µM (inactive)	> 73.3 µM (inactive)
O=C(O)CCC(O)=C1S(=O)(=O)OCCOS1(=O)=O	> 100 µM (inactive)	> 100 µM (inactive)	> 100 µM (inactive)		> 100 µM (inactive)	> 100 µM (inactive)	> 100 µM (inactive)	43.7 µM (inactive)		> 100 µM (inactive)	> 100 µM (inactive)	> 100 µM (inactive)	> 100 µM (inactive)	> 100 µM (inactive)	> 100 µM (inactive)	> 100 µM (inactive)	> 100 µM (inactive)	> 100 µM (inactive)	> 100 µM (inactive)	> 100 µM (inactive)
CC[C@](O)(C(=O)O)c1cc2n(c(=O)c1CO)Cc1cc3ccccc3nc1-2	0.0137 µM (active)		0.0333 µM (active)	0.025 µM (active)	0.0372 µM (active)	0.0254 µM (active)	0.0257 µM (active)	0.01 µM (active)	0.025 µM (active)	0.0336 µM (active)	0.0261 µM (active)	0.0372 µM (active)		0.0371 µM (active)	0.23 µM (active)	0.234 µM (active)		0.0975 µM (active)	0.0373 µM (active)	0.0566 µM (active)
